Laboratory results published in patent US20110077232A1, “COMPOSITIONS COMPRISING ATORVASTATIN 4-(NITROOXY) BUTYL ESTER AND A HYPOLIPIDEMIC DRUG” (Nicox S.A., priority 2008, published 2011).

Experiments:
female APOE*3Leiden mice [1] = test: Progression of atherosclerosis (overall, lesion area), Method 2; type: in vivo; settings: 12 weeks; result in words
Protocol: (§1) Fifty-six female APOE*3Leiden mice (age 11-13 weeks, body weight 20-25 gram) were put on a semi-synthetic Western-type diet for 4 weeks and were subsequently treated with or without NO-atorvastatin (13.0 mg/kg b.w. or 0.0108% w/w), ezetimibe (0.1 mg/kg b.w. or 0.000083% w/w until week 6 and 0.3 mg/kg b.w. or 0.000249% w/w from week 6-12) and a combination of NO-atorvastatin with ezetimibe for 12 weeks. At time point t=0, t=4, t=8 and t=12 blood was collected for the measurement of the indicated lipid and inflammation parameters and at sacrifice serum, heart, thoracic aorta and liver were collected. The number of lesions and the number of undiseased segments in the aortic root were measured.

female APOE*3Leiden mice [2] = test: Undiseased segments in the aortic root, Method 2; type: in vivo; settings: 12 weeks; for Undiseased segments (% of total): aortic root, n=12 per group, means±SD
Protocol: as §1
The number of undiseased segments in the aortic root was counted individually (n=12 per group) and calculated as percentage of all quantified segments. Values are percentages (means±SD).

female APOE*3Leiden mice [3] = test: Number of lesions in the aortic root, Method 2; type: in vivo; settings: for influence on number of lesions as compared to the control group: 12 weeks, result in words; for Lesion number per cross section: t = 12 weeks, NO-atorvastatin 13.0 mg/kg, ezetimibe 0.1 then 0.3 mg/kg, means±SD
Protocol: as §1
The number of lesions per cross section is presented as absolute values (means±SD).

female APOE*3Leiden mice [4] = test: Plasma ALT levels (liver function), Method 1; type: in vivo; settings: for ALT: pooled plasma
Protocol: Alanine transaminase (ALT), as measure for liver function, was measured in pooled samples using the spectrophotometric assay of the Boehringer Reflotron system.

female APOE*3Leiden mice [5] = test: Total plasma cholesterol, Method 1; type: in vivo; design: decreased plasma cholesterol levels (vs control): concentration or dose not given beside the values; settings: for Cholesterol: means ± SD
Protocol: Total plasma cholesterol was determined using kit “Chol R1” is from Roche.

female APOE*3Leiden mice [6] = test: Plasma triglycerides, Method 1; type: in vivo; settings: for Triglycerides: means ± SD
Protocol: (§2) At the end of each treatment period blood was collected for the indicated lipid and inflammation parameters and at sacrifice livers and plasma/serum were collected.
Triglycerides level was determined using kit “Triglycerides GPO-PAP” from Roche.

female APOE*3Leiden mice [7] = settings: t = 8 weeks; means ± SD, n ≧ 9 mice per group
Protocol: as §2
P-Selectin, adhesion molecule as inflammation marker, was determined using commercially available Elisa kit.

[8] = t = 0 (before treatment), n ≧ 9 mice per group
[9] = t = 4 weeks, NO-atorvastatin 4.3 mg/kg, ezetimibe 0.1 mg/kg, fenofibrate 1 mg/kg in diet
[10] = t = 8 weeks, NO-atorvastatin 13 mg/kg, ezetimibe 0.1 mg/kg, fenofibrate 3 mg/kg from week 4
[11] = t = 4 weeks, NO-atorvastatin 4.3 mg/kg, ezetimibe 0.1 mg/kg, fenofibrate 1 mg/kg
[12] = t = 4 weeks, NO-atorvastatin 4.3 mg/kg, fenofibrate 1 mg/kg
[13] = t = 8 weeks, NO-atorvastatin 13 mg/kg, fenofibrate 3 mg/kg from week 4

`O=C1[C@H](CC[C@H](O)c2ccc(F)cc2)[C@@H](c2ccc(O)cc2)N1c1ccc(F)cc1` [Ezetimibe, ezetimibe] was tested, and the “effect on progression of atherosclerosis” value (female APOE*3Leiden mice [1]) was “did not affect the progression of atherosclerosis”, the “effect on number of undiseased segments” value (female APOE*3Leiden mice [2]; result in words) was “did not affect the number of undiseased segments” and the “Undiseased segments (% of total)” value (female APOE*3Leiden mice [2]) was 16.0 ± 14.8 % of total. The “influence on number of lesions as compared to the control group” value (female APOE*3Leiden mice [3]) was “did not influence the number of lesions”, the “Lesion number per cross section” value (female APOE*3Leiden mice [3]) was 3.5 ± 1.0 and the ALT (female APOE*3Leiden mice [4]; [8]) was 120 U/L. The ALT (female APOE*3Leiden mice [4]; [9]) was 92 U/L, the ALT (female APOE*3Leiden mice [4]; [10]) was 81 U/L and the “decreased plasma cholesterol levels (vs control)” value (female APOE*3Leiden mice [5]; after 4 weeks of treatment) was −25%. The “decreased plasma cholesterol levels (vs control)” value (female APOE*3Leiden mice [5]; after 8 weeks of treatment) was −35%, the Cholesterol (female APOE*3Leiden mice [5]; [8]) was 18.6 ± 2.6 mmol/L and the Cholesterol (female APOE*3Leiden mice [5]; [11]) was 16.8 ± 2.4 mmol/L. For the same molecule, the Cholesterol (female APOE*3Leiden mice [5]; [10]) was 14.9 ± 3.2 mmol/L.
`CC(C)OC(=O)C(C)(C)Oc1ccc(C(=O)c2ccc(Cl)cc2)cc1` [Fenofibrate, fenofibrate] was tested, and the “increased ALT levels as compared to the control mice” value (female APOE*3Leiden mice [4]; t=4 weeks) was “+43%”, the “increased ALT levels as compared to the control mice” value (female APOE*3Leiden mice [4]; t=8 weeks) was “+60%” and the Triglycerides (female APOE*3Leiden mice [6]; [8]) was 2.6 ± 0.7 mmol/L. For the same molecule, the Triglycerides (female APOE*3Leiden mice [6]; [12]) was 2.2 ± 0.5 mmol/L, the Triglycerides (female APOE*3Leiden mice [6]; [13]) was 1.6 ± 0.5 mmol/L and the “decrease of plasma triglycerides compared to the control group” value (female APOE*3Leiden mice [6]; t=8 weeks) was 41%. The “decreased plasma cholesterol levels (vs control)” value (female APOE*3Leiden mice [5]; after 4 weeks of treatment) was “no effect”, the “decreased plasma cholesterol levels (vs control)” value (female APOE*3Leiden mice [5]; after 8 weeks of treatment) was −28% and the Cholesterol (female APOE*3Leiden mice [5]; [10]) was 16.5 ± 2.2 mmol/L.
With `CC(C)c1c(C(=O)Nc2ccccc2)c(-c2ccccc2)c(-c2ccc(F)cc2)n1CC[C@@H](O)C[C@@H](O)CC(=O)OCCCCO[N+](=O)[O-]` [NO-atorvastatin, atorvastatin 4-(nitrooxy) butyl ester] the “effect on progression of atherosclerosis” value (female APOE*3Leiden mice [1]) was “reduced atherosclerosis in lesion area”, the “Undiseased segments (% of total)” value (female APOE*3Leiden mice [2]) was 26.4 ± 15.0 % of total and the “influence on number of lesions as compared to the control group” value (female APOE*3Leiden mice [3]) was “did not influence the number of lesions”. The “Lesion number per cross section” value (female APOE*3Leiden mice [3]) was 3.2 ± 0.7, the ALT (female APOE*3Leiden mice [4]; [8]) was 120 U/L and the ALT (female APOE*3Leiden mice [4]; [9]) was 114 U/L. It also gave an ALT (female APOE*3Leiden mice [4]; [10]) of 91 U/L, a Triglycerides (female APOE*3Leiden mice [6]; [8]) of 2.7 ± 0.3 mmol/L and a Triglycerides (female APOE*3Leiden mice [6]; [12]) of 3.2 ± 0.7 mmol/L. The Triglycerides (female APOE*3Leiden mice [6]; [13]) was 2.7 ± 0.5 mmol/L, the “decreased plasma cholesterol levels (vs control)” value (female APOE*3Leiden mice [5]; after 4 weeks of treatment) was −21% and the “decreased plasma cholesterol levels (vs control)” value (female APOE*3Leiden mice [5]; after 8 weeks of treatment) was −34%. The Cholesterol (female APOE*3Leiden mice [5]; [8]) was 18.6 ± 2.8 mmol/L, the Cholesterol (female APOE*3Leiden mice [5]; [11]) was 17.7 ± 2.5 mmol/L and the Cholesterol (female APOE*3Leiden mice [5]; [10]) was 15.2 ± 3.0 mmol/L. It also gave a P-Selectin (female APOE*3Leiden mice [7]) of 190 ± 23 ng/mL.
